Data on 3 compounds can be found in patent publication US20260144257A1, “VITAMIN B3 BASED PRESERVATIVE COMPOSITIONS” (SHARON PERSONAL CARE LTD., priority 2022, published 2026).

The subject of the assay is tested bacteria and fungi (E. coli, S. aureus, P. aeruginosa, C. albicans, A. brasiliensis). The assay is described as follows: Challenge test of preservative efficacy in formulations (ISO 11930). It is filed as cell-based. The text has this: Escherichia coli (ATCC 8739), Staphylococcus aureus (ATCC 6538), P. aeruginosa (ATCC 9027), Candida albicans (ATCC 10231), and Aspergillus brasiliensis (ATCC 16404) were obtained from ATCC and cultured according to the manufacturer's instructions. These microorganisms are routinely used for minimum inhibitory concentration (MIC), checkerboards and challenge tests according to the US and EU recommendations for the efficacy of preservatives in the cosmetic industry. Bacterial strains were maintained in tryptic soy agar (TSA) (Hy-labs, Rehovot, Israel), while yeast and mold strains were maintained in sabouraud dextrose agar (SDA) (Hy-labs, Israel), supplemented with oxytetracycline at a concentration of 1% (Hy-labs, Israel). Preservative efficacy assays (challenge tests) were performed in order to enumerate the number of microorganisms present in a formulation containing the preservative system, while the diluent solution was supplemented with neutralizers containing 4% Tween 20 and 0.5% lecithin (Hy-labs, Israel). Challenge tests of preservative efficacy in formulations were performed according to the ISO 11930 regulations. The total count for any prior contamination was performed for all formulations. Specifically, in order to evaluate the antimicrobial and antifungal activity of the preservative system, samples were inoculated separately with each microorganism at a final concentration of 10^6 cfu/mL for bacteria and 10^5 cfu/mL for yeast and mold. Samples were incubated in the dark at 22° C. for 28 days. […] To enumerate the microorganisms at each time point, serial dilutions were made up to 10-4, and 1 mL were seeded in duplicates onto a petri dish with the appropriate media TSA/SDA (bacteria vs. yeast and mold, respectively), using the pour plate method. Plates were incubated at 32° C. for three days for bacteria while yeast and mold were incubated at 22° C. for five days until the enumeration of viable microorganisms. [table]

With polylysine, the preservative activity result (standalone treatment, 0.1%, non-ionic cream) is “didn't show any markable preservative activity”.

With `NC(=O)c1cccnc1` [niacinamide], the “antimicrobial activity of the single agent” value (alone at the above concentrations (about 2.8% niacinamide or about 0.2% cationic surfactant)) is “only limited antimicrobial activity”.

Turning to `CCCCCCC(O)CO` (stereo not drawn) [CG, Caprylyl Glycol], where the note is “sole application (without niacinamide)”, the preservative activity result is given as “didn't show any markable preservative activity”.
